Assays:
STAT-1 = test: Inhibition of PMA-induced STAT-1 phosphorylation in NK-92 cells (western blot); format: cell-based, Human; conditions: PMA-induced (FIG. 2B)
Method: Human cell lines NK-92, U937, A549 and HepG2 (American Type Culture Collection, ATCC, Rockville, Md.) were cultured at 37° C. under 5% CO2 humid conditions. NK-92 cells were cultured in alpha-MEM media (Life Technologies, Karlsruhe, Germany) containing 10% Fetal Calf Serum (FCS, HyClone, Logan, Utah), 2 mM […], 100 μg/ml penicillin, 100 μg/ml streptomycin (Life Technologies). U937, A549 and HepG2 cells were cultured in RPMI media containing 10% Fetal Calf Serum.
Cells treated in EC-18 and PMA (Phobol 12-myristate 13-acetate) were lysed with cold SDS lysis buffer [(50 mM HEPES, 150 mM NaCl, 0.2 mM EDTA, 0.5% NP-40, 0.1% SDS, 1 mM Na3VO4, 10 mM NaF, and complete Protein Inhibitor Cocktail (Roche)] for 30 minutes on ice. After cell lysis, the aqueous solution was separated from the insoluble precipitate by centrifuging the cell lysates for 30 minutes at 13,000 rpm in a high-speed centrifuge. After protein quantification, the aqueous solution was separated in 10 to 12% SDS-PAGE by electrophoresis. Proteins separated in the gel were transferred into PVDF membrane (Millipore, Billerica, Mass., USA) at 100V for 2 hours. […]

[1] = system: collagen-induced arthritis in male DBA/1J mouse; test: Arthritis animal model induced by bovine type II collagen; format: in vivo; conditions: for histopathological arthritis score of knee joint: knee joint of both hind legs, vs negative control (FIG. 6); for histopathological arthritis score of knee joint / concentration of IL-6 in serum: EC-18 125, 500, 2,000 mg/kg oral, Remicade 20 mg/kg i.p., methotrexate 2.5 mg/kg oral; for concentration of IL-6 in serum: serum at day of tissue excision, once a day for five weeks, vs negative control (FIG. 4)
Method: For arthritis animal model experiment, arthritis was induced in male DBA/1J mouse by administering bovine type II collagen to the mouse. Efficacy of EC-18 for treating (or improving) arthritis was evaluated by repeatedly administering EC-18 to the mouse orally. For comparison, Remicade (positive control 1) was administered intraperitoneally and methotrexate (positive control 2) was administered orally. The experiment included seven groups: normal group (G1), negative control (G2), 125 mg/kg, 500 mg/kg and 2,000 mg/kg of EC-18 (EC-18 treatment groups, G3, G4, G5), 20 mg/kg of Remicade (Positive control 1, G6) and 2.5 mg/kg of Methotrexate (Positive control 2, G7). Each group consists of 10 mice. Olive oil was administered to normal group (G1) and negative control group (G2) as an excipient. In all groups, administration was made once a day for five weeks (a total of 35 administrations). Remicade (G6) was administered intraperitoneally, whereas EC-18, methotrexate and olive oil were administered orally in force. For all groups except normal Group (G1), arthritis was induced by immunizing animals twice with bovine type II collagen and complete Freund's adjuvant or incomplete Freund's adjuvant emulsion. During the observation period, common arthritis symptoms were observed once a day, weigh measured once a week, arthritic score evaluation made with the naked eye twice a week, foot thickness measured twice a week.

Compound | STAT-1 phosphorylation (STAT-1) | histopathological arthritis score of knee joint [1] | concentration of IL-6 in serum [1] | crushing of cartilage and increase of Pannus (stained arthritic tissue) ([1]; EC-18 500 mg/kg oral (G4), Remicade 20 mg/kg i.p. (G6), vs negative control (FIGS. 7 and 8))
CCCCC/C=C\C/C=C\CCCCCCCC(=O)OC(COC(C)=O)COC(=O)CCCCCCCCCCCCCCC (stereo not drawn) [EC-18, 1-palmitoyl-2-linoleoyl-3-acetylglycerol] | does not inhibit |  |  | 
CN(Cc1cnc2nc(N)nc(N)c2n1)c1ccc(C(=O)N[C@@H](CCC(=O)O)C(=O)O)cc1 [Methothrexate, methotrexate] |  | reduced | reduced | 
Remicade: positive control 1, administered intraperitoneally at 20 mg/kg |  | reduced | reduced | reduced

Source: patent US9895337B2, “Compositions containing monoacetyldiacylglycerol compound as an active ingredient for preventing or treating rheumatoid arthritis” (ENZYCHEM LIFESCIENCES CORPORATION, priority 2013, dated 2018)
